# Patent publication US20240270749A1, “1,2,4-TRIAZOLO[1,5-A]PYRIMIDINE-BASED SLC16A3 INHIBITORS AND THEIR THERAPEUTIC USE” (CEMM - FORSCHUNGSZENTRUM FÜR MOLEKULARE MEDIZIN GMBH, priority 2021, published 2024)
# Entries after “also recorded” stand apart in the source; their conditions may differ. Read-outs that look alike come from different tables or passages of the source.
# Tests used:
# HAP1 WT cells = test: Synthetic lethality guided viability screening (CellTiter Glo), HAP1 WT cells; type: cell-based; settings: Homo sapiens, 72 hours, Cell titer glo, from dose response curves
# Description: (§1) Compounds were printed to individual wells of 384 well plates (Corning) with Echo acoustic liquid dispenser (Labcyte). HAP1 cells were seeded using a dispenser (Thermo Fischer Scientific) in density 1,000 cells per well in 50 μl. As controls, DMSO or Bortezomib treatments were used. Viability of cells was assessed after 72 hours with CellTiter Glo (Promega) and % of controls were calculated based on RLU values in DMSO (100%) and Bortezomib (0%) wells. First screening was performed in 10 μM final concentration. Second screening was performed in technical duplicates, in 4 point dose response setting, with concentrations ranging from 13-0.5 μM. Third screening was performed in technical triplicates in 6 point dose response setting, with concentrations ranging from 27-0.11 μM. LAMA84 cells were used in density 3,000 cells per well. AZD3965, BAY-8002, syrosingopine and compounds obtained from third party vendors were tested in 96 well plates, with 2,500 cells per well with manual seeding and treatment. Compound efficacy was determined either by comparing % of control, or by IC50 estimation based on dose response curves (calculated with R package drc, or with GraphPad Prism).
# (§2) Table 1: Results of synthetic lethality guided chemical screening assay. HAP1 WT, HAP1 SLC16A1^−/− or HAP1 SLC16A3^−/− cell lines were treated with presented compounds for 72 hours and viability was determined by Cell titer glo assay (Promega). Data are presented either as a percentage of viability in HAP1 SLC16A1^−/− cells compared to controls (DMSO=100% and Bortezomib=0%) upon single dose treatment (10 μM) or as IC50 values obtained from dose response curves.
# HAP1 SLC16A1^−/− cells [1] = test: Synthetic lethality guided viability screening (CellTiter Glo), HAP1 SLC16A1-/- cells (SLC16A3-dependent); type: cell-based; settings: Homo sapiens; for IC50: from dose response curves; for viability at 10 µM: read-out: HAP1 SLC16A1^−/− % of viability
# Description: as §1, §2
# HAP1 SLC16A3^−/− cells [2] = test: Synthetic lethality guided viability screening (CellTiter Glo), HAP1 SLC16A3-/- cells (SLC16A1-dependent); type: cell-based; settings: for IC50: Homo sapiens, HAP1, 72 hours, Cell titer glo, from dose response curves, read-out: HAP1 SLC16A31^−/− IC50
# Description: as §1, §2
# [3] = system: HAP1 dependent on SLC16A7; test: Viability of HAP1 cells dependent on SLC16A7; type: cell-based; settings: SLC16A7 overexpressed in HAP1 SLC16A3^−/−, SLC16A1 knocked out
# Description: To test this, the inventors overexpressed SLC16A7 or SLC16A8 in HAP1 SLC16A3^−/− cells and knocked out SLC16A1 using CRISPR/Cas9. […]
# HAP1 SLC16A3^−/− cells [4] = test: Lactate Glo lactate accumulation, HAP1 SLC16A3-/- cells; type: cell-based; settings: 10 μM, 6 hours
# Description: (§3) Protocol for lactate glo was modified based on Benjamin D et al., Cell Reports, 2018, 25(11):3047-3058.e4. Cells were seeded in 96 well plate in density 30,000 cells per well. Next day cells were treated with tested compounds, AZD3965 and syrosingopine (all in final concentration of 10 μM) or DMSO. After 6 hours of incubation at 37° C., cells were washed twice with PBS, lysed with 0.2N HCl, neutralized with 1M Tris-base (Sigma) and incubated for 1 hour at RT with lactate glo reagents (Promega). Lactate accumulation was then estimated based on luminescence signal.
# HAP1 SLC16A1^−/− cells [5] = test: Lactate Glo lactate accumulation, HAP1 SLC16A1-/- cells; type: cell-based; settings: 10 μM, 6 hours
# Description: as §3
# SLC16A3 = target: T1, SLC16A3 (Homo sapiens, UniProt O15427); test: Cellular Thermal Shift Assay (CETSA), HEK293T lysates with HIBIT-tagged SLC16A3; type: binding; settings: HEK293T lysate, HIBIT-tagged SLC16A3, split-nano luciferase readout
# T1 construct: expressed in transfected cells; lysate supernatant used
# T1 sequence (O15427 1-465): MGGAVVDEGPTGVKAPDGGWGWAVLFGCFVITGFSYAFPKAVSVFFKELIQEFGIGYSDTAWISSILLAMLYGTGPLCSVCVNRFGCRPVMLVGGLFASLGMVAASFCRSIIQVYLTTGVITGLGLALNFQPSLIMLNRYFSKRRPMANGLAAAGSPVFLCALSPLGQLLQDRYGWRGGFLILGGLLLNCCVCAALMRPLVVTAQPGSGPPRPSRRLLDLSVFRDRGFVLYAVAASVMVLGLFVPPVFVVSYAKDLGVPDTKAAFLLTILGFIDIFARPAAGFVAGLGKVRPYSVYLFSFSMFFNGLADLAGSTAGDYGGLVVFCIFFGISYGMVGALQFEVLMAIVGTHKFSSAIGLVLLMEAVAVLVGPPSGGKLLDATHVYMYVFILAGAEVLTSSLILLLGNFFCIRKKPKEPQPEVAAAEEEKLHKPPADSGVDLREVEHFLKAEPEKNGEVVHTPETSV
# Description: HEK293T cells with stable expression of HIBIT-tagged SLC16A3 were lysed as described in Hashimoto M et al., ACS Chemical Biology, 2018, 13(6):1480-86. Lysates were then centrifugated at 14,000 RPM, 20 min at 4° C. Supernatant were next incubated with tested compounds or DMSO on ice for 1 hour. After that samples were aliquoted to PCR strips, heated in gradient thermocycler for 6 min and let cool down at room temperature (RT) for 3 min. Samples were then centrifugated at 14,000 RPM, 40 min at 4° C. and protein abundance in supernatants was determined using HIBIT lytic detection system (Promega) in 384 well plate. Reagents for HIBIT detection were diluted in lysis buffer (Hashimoto M et al., loc. cit.) instead of buffer provided with kit. All measurements were done in technical triplicate.
# [6] = system: cells dependent on SLC16A3 in HAP1 and LAMA84 cell lines; test: Selectivity counter screen, HAP1 and LAMA84 cell line panel; type: cell-based; settings: panel incl. LAMA84 sgRen/sgSLC16A1/sgSLC16A3, HAP1 dependent on SLC16A7 or SLC16A8, rescue lines
# Description: as §1
# To get further insights into the selectivity and mode of action of these hits, the inventors created a selection of compounds with similar structure to their hits from the whole library and tested those further. […]
# [7] = HAP1, single dose 10 μM, 72 hours, Cell titer glo, compared to controls DMSO=100%, Bortezomib=0%
Structure (SMILES),IC50 (HAP1 WT cells) [µM],"IC50 (HAP1 SLC16A1^−/− cells [1]; HAP1, 72 hours, Cell titer glo) [µM]",IC50 (HAP1 SLC16A3^−/− cells [2]) [µM],further results
CSc1nc2nc(C)c(CCC(=O)Nc3ccc(C)cc3)c(C)n2n1 [Compound 3],> 30,2.34,> 30,–
CCOc1ccc(NC(=O)CCc2c(C)nc3nc(C)nn3c2C)cc1 [Compound 15],–,–,–,"viability at 10 µM (HAP1 SLC16A1^−/− cells [1]; HAP1, 72 h): 38.5%"
CCc1ccc(NC(=O)CCc2c(C)nc3nc(C)nn3c2C)cc1 [Compound 14],–,–,–,viability at 10 µM (HAP1 SLC16A1^−/− cells [1]; [7]): 37.5%
Cc1nc2nc(C(F)(F)F)nn2c(C)c1CCC(=O)Nc1ccncc1 [Compound 7],> 30,11.2,> 30,–
CSc1nc2nc(C)c(CCC(=O)Nc3cc(C)cc(C)c3)c(C)n2n1 [Compound 4],> 30,1.83,> 30,–
COc1ccc(NC(=O)CCc2c(C)nc3nc(C)nn3c2C)cc1 [Compound 17],–,–,–,"viability at 10 µM (HAP1 SLC16A1^−/− cells [1]; HAP1, 72 h): 44.4%"
Cc1nc2nc(C)c(CCC(=O)Nc3ccc(Br)cc3)c(C)n2n1 [Compound 16],–,–,–,viability at 10 µM (HAP1 SLC16A1^−/− cells [1]; [7]): 38.7%
"O=C(Nc1ccccc1C(=O)O)c1cc(S(=O)(=O)c2ccccc2)ccc1Cl [BAY-8002, reference compound]",–,–,–,killing of HAP1 cells dependent on SLC16A7 (in words) [3]: can be killed; effect on viability of HAP1 SLC16A3^−/− cells (in words) (HAP1 SLC16A3^−/− cells [2]): reduced viability
Cc1nc2nc(C(F)(F)F)nn2c(C)c1CCC(=O)Nc1ccccc1 [Compound 19],> 30,8.94,> 30,–
Cc1nc2ncnn2c(C)c1CCC(=O)Nc1ccc(S(=O)(=O)N2CCCCCC2)cc1 [Compound 9],> 30,1.98,> 30,–
Cc1nc2nc(C)c(CCC(=O)Nc3ccc(C)c(C)c3)c(C)n2n1 [Compound 13],–,–,–,lactate accumulation in HAP1 SLC16A3^−/− cells (HAP1 SLC16A3^−/− cells [4]): no accumulation was observed; also recorded: did not affect lactate accumulation; lactate accumulation in HAP1 SLC16A1^−/− cells (HAP1 SLC16A1^−/− cells [5]): lactate accumulation comparable to control (syrosingopine); also recorded: significant lactate accumulation was observed; shift in melting temperature of SLC16A3 (CETSA) (SLC16A3): showed a shift in melting temperature of SLC16A3; viability at 10 µM (HAP1 SLC16A1^−/− cells [1]; [7]): 37%; selective killing in HAP1 and LAMA84 cell line panel (in words) [6]: selectively kill only cells dependent on SLC16A3
